According to article PMC8021118, “Shared recognition of citrullinated tenascin-C peptides by T and B cells in rheumatoid arthritis” (JCI Insight, 2021):
Like-named read-outs stand apart in the source and are kept apart here. Where a SMILES comes first, the peptide text is derived from it. Where no end group is shown, it is not given here. [ ]: non-standard residue; d: D form. Cit = NC(=O)NCCC[C@H](N)C(=O)O

Tests used:
HLA-DRB1*04:01 = HLA-DRB1*04:01 (Homo sapiens, UniProt P01903+P01911, A100K/A169T/F76Y/I96L/K127E/L162R/M171V/N62H/P40V/Q125Y/R42H/S133A/S149N/S66Y/V115G/V209L/W38E); experiment: Peptide competition binding assay to HLA-DRB1*04:01; conditions: for Binding to HLA-DRB1*04:01 (in words): 15-mer T cell peptides, EC50 cutoff for measurable binding 50 μM
[1] = system: CD4+ T cells in PBMC from HLA-DRB1*04:01+ subjects; experiment: In vitro expansion of peptide-specific CD4+ T cells from PBMC and HLA class II tetramer staining; type: cell-based, human; conditions: for Responders (% in RA): RA subjects with positive in vitro response (>0.1% of CD4+ T cells tetramer+) of total tested, 10 μg/mL peptide, 14 days, n = 14, TNC44 and TNC59 n = 6; for Immunogenicity: Supplemental Table 1, ability to elicit an immune response in vitro (tetramer staining after expansion); for T cell responses in vitro (in words): noncitrullinated 15-mer versions
From the text: TNC is a large protein (2110 amino acids in length) composed of an N-terminal assembly domain, 14.5 epidermal growth factor–like repeats (EGF-L), 8 constant fibronectin type III–like repeats (FNIII), and an additional 9 alternatively spliced FNIII elements, and a C-terminal fibrinogen-like globe (FBG) ([16]). Using a previously described algorithm ([9], [24]), we scanned the entire length of the TNC monomer and identified 64 arg-containing peptides with motifs that would predict to permit binding to HLA-DRB1*04:01 in either their noncitrullinated native form, citrullinated form, or both. Based on these predictions, we synthesized the citrullinated versions of these peptides and tested their ability to bind HLA-DRB1*04:01 and to elicit CD4^+ T cell expansion in vitro. Of the peptides synthesized, 8 cit-TNC peptides bound to HLA-DRB1*04:01 with moderate to high affinity (Table 1). Among these, cit-TNC17, cit-TNC22, cit-TNC45, cit-TNC50, and cit-TNC56 were determined to be the most immunogenic, based on their ability to drive epitope-specific T cell expansion, as measured by HLA class II tetramer (Tmr) staining of peripheral blood mononuclear cells (PBMC) from HLA-DRB1*04:01^+ subjects following 2 weeks of in vitro expansion (Table 1 and Supplemental Figure 1; supplemental material available online with this article; https://doi.org/10.1172/jci.insight.145217DS1).
Recombinant HLA-DRB1*04:01 protein was produced by the BRI Tetramer Core as previously described ([56]). Soluble HLA-DRB1*04:01 monomer was purified from insect cell culture supernatants and biotinylated at a sequence-specific site using biotin ligase (Avidity) prior to dialysis into phosphate storage buffer. The biotinylated monomer was loaded with 0.2 mg/mL of peptide by incubating at 37°C for 72 hours in the presence of 2.5 mg/mL n-octyl β-D-glucopyranoside and 1 mM Pefabloc SC (Sigma-Aldrich). Peptide-loaded monomers were conjugated into Tmrs using fluorescently labeled streptavidin (Invitrogen) for 6–18 hours at room temperature at a molar ratio of 8:1.
Cryopreserved PBMCs from RA and healthy subjects were cultured at 5 × 10^6 cells/well in a 48-well plate in RPMI-1640 + 10% HPS with 10 μg/mL of peptide. IL-2 (Novartis) was added at 325 IU/mL on day 6. On day 14, cells were stained for expression of Tmr-PE, CD25 APC (BD Biosciences), and CD4 FITC (BioLegend) (Supplemental Table 8) and then run on a FACSCanto. The data were analyzed by FlowJo software version 10.

[2] = Supplemental Table 1, citrullinated (X) vs arginine (R) versions, cutoff in the peptide binding assay 50 μM

CEYEVSLISRRGDMSSNPAC [arg-TNC17, Cys-flanked arginine TNC17 peptide used in ELISA]
Binding to HLA-DRB1*04:01 (in words) (HLA-DRB1*04:01): did not

CC[C@H](C)[C@H](NC(=O)[C@H](C)NC(=O)[C@@H]1CCCN1C(=O)[C@H](CCC(N)=O)NC(=O)[C@H](Cc1c[nH]c2ccccc12)NC(=O)[C@H](CCCNC(N)=O)NC(=O)[C@H](C)NC(=O)[C@@H](N)CC(C)C)C(=O)N[C@@H](C)C(=O)N[C@H](C(=O)N[C@H](C(=O)N[C@@H](CC(=O)O)C(=O)N[C@@H](CO)C(=O)N[C@@H](Cc1ccc(O)cc1)C(=O)N[C@H](C(=O)O)C(C)C)C(C)C)[C@@H](C)O [TNC52] (H-LA[Cit]WQPAIATVDSYV-OH)
EC50 (HLA-DRB1*04:01): 28.8 µM | Responders (% in RA) [1]: 33%

CC[C@H](C)[C@H](NC(=O)[C@H](CC(C)C)NC(=O)[C@H](CO)NC(=O)[C@@H](N)C(C)C)C(=O)N[C@@H](CO)C(=O)N[C@@H](CCCNC(N)=O)C(=O)N[C@@H](CCCNC(=N)N)C(=O)NCC(=O)N[C@@H](CC(=O)O)C(=O)N[C@@H](CCSC)C(=O)N[C@@H](CO)C(=O)N[C@@H](CO)C(=O)N[C@@H](CC(N)=O)C(=O)N1CCC[C@H]1C(=O)N[C@@H](C)C(=O)O [TNC-17XR] (H-VSLIS[Cit]RGDMSSNPA-OH)
EC50 (HLA-DRB1*04:01; [2]): > 50 µM

CC(C)C[C@H](NC(=O)[C@H](CCC(=O)O)NC(=O)[C@H](Cc1ccc(O)cc1)NC(=O)[C@H](CCC(N)=O)NC(=O)CNC(=O)[C@@H](N)CCC(N)=O)C(=O)N[C@@H](CCCNC(N)=O)C(=O)N[C@H](C(=O)N[C@@H](CC(=O)O)C(=O)N[C@@H](CC(C)C)C(=O)N[C@@H](CCCNC(N)=O)C(=O)N[C@@H](CC(=O)O)C(=O)N[C@@H](Cc1c[nH]cn1)C(=O)NCC(=O)N[C@@H](CCC(=O)O)C(=O)O)C(C)C [TNC56] (H-QGQYEL[Cit]VDL[Cit]DHGE-OH)
EC50 (HLA-DRB1*04:01): 9 µM

FDRYRLNYSLPTGQW [TNC-22RR]
EC50 (HLA-DRB1*04:01; [2]): 1 µM | Immunogenicity [1]: Yes

CC[C@H](C)[C@H](NC(=O)[C@H](CC(C)C)NC(=O)[C@H](CO)NC(=O)[C@@H](N)C(C)C)C(=O)N[C@@H](CO)C(=O)N[C@@H](CCCNC(N)=O)C(=O)N[C@@H](CCCNC(N)=O)C(=O)NCC(=O)N[C@@H](CC(=O)O)C(=O)N[C@@H](CCSC)C(=O)N[C@@H](CO)C(=O)N[C@@H](CO)C(=O)N[C@@H](CC(N)=O)C(=O)N1CCC[C@H]1C(=O)N[C@@H](C)C(=O)O [TNC17] (H-VSLIS[Cit][Cit]GDMSSNPA-OH)
EC50 (HLA-DRB1*04:01): 3.6 µM

CVSDATPDGFRLSWTADEGC [arg-TNC45, Cys-flanked arginine TNC45 peptide used in ELISA]
Binding to HLA-DRB1*04:01 (in words) (HLA-DRB1*04:01): bound | T cell responses in vitro (in words) [1]: had the ability to elicit T cell responses in vitro

CC(C)C[C@H](NC(=O)[C@H](CCCNC(=N)N)NC(=O)[C@H](Cc1ccc(O)cc1)NC(=O)[C@H](CCCNC(N)=O)NC(=O)[C@H](CC(=O)O)NC(=O)[C@@H](N)Cc1ccccc1)C(=O)N[C@@H](CC(N)=O)C(=O)N[C@@H](Cc1ccc(O)cc1)C(=O)N[C@@H](CO)C(=O)N[C@@H](CC(C)C)C(=O)N1CCC[C@H]1C(=O)N[C@H](C(=O)NCC(=O)N[C@@H](CCC(N)=O)C(=O)N[C@@H](Cc1c[nH]c2ccccc12)C(=O)O)[C@@H](C)O [TNC-22XR] (H-FD[Cit]YRLNYSLPTGQW-OH)
EC50 (HLA-DRB1*04:01; [2]): 0.6 µM | Immunogenicity [1]: Yes

CTPLAKFDRYRLNYSLPTGC [arg-TNC22, Cys-flanked arginine TNC22 peptide used in ELISA]
Binding to HLA-DRB1*04:01 (in words) (HLA-DRB1*04:01): bound | T cell responses in vitro (in words) [1]: had the ability to elicit T cell responses in vitro

H-QGQYELRVDLRDHGE-OH [TNC-56RR]
EC50 (HLA-DRB1*04:01; [2]): > 50 µM

CC(C)C[C@H](NC(=O)[C@H](CCC(=O)O)NC(=O)[C@H](Cc1ccc(O)cc1)NC(=O)[C@H](CCC(N)=O)NC(=O)CNC(=O)[C@@H](N)CCC(N)=O)C(=O)N[C@@H](CCCNC(N)=O)C(=O)N[C@H](C(=O)N[C@@H](CC(=O)O)C(=O)N[C@@H](CC(C)C)C(=O)N[C@@H](CCCNC(=N)N)C(=O)N[C@@H](CC(=O)O)C(=O)N[C@@H](Cc1c[nH]cn1)C(=O)NCC(=O)N[C@@H](CCC(=O)O)C(=O)O)C(C)C [TNC-56XR] (H-QGQYEL[Cit]VDLRDHGE-OH)
EC50 (HLA-DRB1*04:01; [2]): 8.7 µM

CC(C)C[C@H](NC(=O)[C@H](CCCNC(N)=O)NC(=O)[C@H](Cc1ccc(O)cc1)NC(=O)[C@H](CCCNC(=N)N)NC(=O)[C@H](CC(=O)O)NC(=O)[C@@H](N)Cc1ccccc1)C(=O)N[C@@H](CC(N)=O)C(=O)N[C@@H](Cc1ccc(O)cc1)C(=O)N[C@@H](CO)C(=O)N[C@@H](CC(C)C)C(=O)N1CCC[C@H]1C(=O)N[C@H](C(=O)NCC(=O)N[C@@H](CCC(N)=O)C(=O)N[C@@H](Cc1c[nH]c2ccccc12)C(=O)O)[C@@H](C)O [TNC-22RX] (H-FDRY[Cit]LNYSLPTGQW-OH)
EC50 (HLA-DRB1*04:01; [2]): 0.9 µM | Immunogenicity [1]: Yes

CQGQYELRVDLRDHGETAFC [arg-TNC56, Cys-flanked arginine TNC56 peptide used in ELISA]
Binding to HLA-DRB1*04:01 (in words) (HLA-DRB1*04:01): did not

CPTAQVESFRITYVPITGGC [arg-TNC50, Cys-flanked arginine TNC50 peptide used in ELISA]
Binding to HLA-DRB1*04:01 (in words) (HLA-DRB1*04:01): bound | T cell responses in vitro (in words) [1]: had the ability to elicit T cell responses in vitro

VESFRITYVPITGGT [TNC-50R]
EC50 (HLA-DRB1*04:01; [2]): 1 µM | Immunogenicity [1]: Yes

CC[C@H](C)[C@H](NC(=O)[C@H](CC(C)C)NC(=O)[C@H](CO)NC(=O)[C@@H](N)C(C)C)C(=O)N[C@@H](CO)C(=O)N[C@@H](CCCNC(=N)N)C(=O)N[C@@H](CCCNC(N)=O)C(=O)NCC(=O)N[C@@H](CC(=O)O)C(=O)N[C@@H](CCSC)C(=O)N[C@@H](CO)C(=O)N[C@@H](CO)C(=O)N[C@@H](CC(N)=O)C(=O)N1CCC[C@H]1C(=O)N[C@@H](C)C(=O)O [TNC-17RX] (H-VSLISR[Cit]GDMSSNPA-OH)
EC50 (HLA-DRB1*04:01; [2]): 4.7 µM

CC(C)C[C@H](NC(=O)[C@H](CCC(=O)O)NC(=O)[C@H](Cc1ccc(O)cc1)NC(=O)[C@H](CCC(N)=O)NC(=O)CNC(=O)[C@@H](N)CCC(N)=O)C(=O)N[C@@H](CCCNC(=N)N)C(=O)N[C@H](C(=O)N[C@@H](CC(=O)O)C(=O)N[C@@H](CC(C)C)C(=O)N[C@@H](CCCNC(N)=O)C(=O)N[C@@H](CC(=O)O)C(=O)N[C@@H](Cc1c[nH]cn1)C(=O)NCC(=O)N[C@@H](CCC(=O)O)C(=O)O)C(C)C [TNC-56RX] (H-QGQYELRVDL[Cit]DHGE-OH)
EC50 (HLA-DRB1*04:01; [2]): > 50 µM

CC[C@H](C)[C@H](NC(=O)[C@H](CCC(=O)O)NC(=O)[C@H](C)NC(=O)[C@H](CCCNC(N)=O)NC(=O)[C@H](CC(C)C)NC(=O)[C@@H]1CCCN1C(=O)[C@H](CCCCN)NC(=O)[C@@H](N)[C@@H](C)O)C(=O)N[C@H](C(=O)N[C@H](C(=O)N[C@@H](CCC(=O)O)C(=O)N[C@@H](C)C(=O)N[C@@H](CCC(=O)O)C(=O)N1CCC[C@H]1C(=O)N[C@@H](CCC(=O)O)C(=O)O)[C@@H](C)O)C(C)C [TNC44] (H-TKPL[Cit]AEIVTEAEPE-OH)
EC50 (HLA-DRB1*04:01): 33.3 µM | Responders (% in RA) [1]: 33%

H-VSLISRRGDMSSNPA-OH [TNC-17RR]
EC50 (HLA-DRB1*04:01; [2]): > 50 µM

PDGFRLSWTADEGVF [TNC-45R]
EC50 (HLA-DRB1*04:01; [2]): 5.7 µM | Immunogenicity [1]: Yes

CSCC[C@H](NC(=O)[C@@H](N)CO)C(=O)N[C@@H](C)C(=O)N[C@@H](Cc1ccc(O)cc1)C(=O)N[C@@H](Cc1c[nH]cn1)C(=O)N[C@@H](CC(N)=O)C(=O)NCC(=O)N[C@@H](CCCNC(N)=O)C(=O)N[C@@H](CO)C(=O)N[C@@H](Cc1ccccc1)C(=O)N[C@@H](CO)C(=O)N[C@H](C(=O)N[C@@H](Cc1ccccc1)C(=O)N[C@@H](CC(=O)O)C(=O)N[C@@H](CCCCN)C(=O)O)[C@@H](C)O [TNC59] (H-SMAYHNG[Cit]SFSTFDK-OH)
EC50 (HLA-DRB1*04:01): 25 µM | Responders (% in RA) [1]: 33%
